pIC50: −log10 of the molar value. Like-named read-outs stand apart in the source and are kept apart here.
Assays:
human Gal-3 (hGal-3) = human Gal-3 (hGal-3) (Homo sapiens (Human), UniProt P17931); test: competitive binding assay: biotinylated hGal-3 binding to microplate-adsorbed asialofetuin (ASF); details: read-out: IC50 (Gal-3 inhibition)
Summary of the method: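 Competition of compounds with biotinylated human Gal-3 for asialofetuin-coated plates, 3 hours at 4° C. Bound Gal-3 detected with streptavidin-peroxidase (80 ng/mL, 1 hour, 4° C) and ABTS substrate. IC50 reported as the mean of several measurements.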

human Gal-1 (hGal-1) = human Gal-1 (hGal-1) (Homo sapiens (Human), UniProt P09382); test: competitive binding assay: biotinylated hGal-1 binding to microplate-adsorbed asialofetuin (ASF); details: Table 15; read-out: IC50 (Galectin-1 inhibition)
human Gal-1 (hGal-1), sequence (P09382 whole entry): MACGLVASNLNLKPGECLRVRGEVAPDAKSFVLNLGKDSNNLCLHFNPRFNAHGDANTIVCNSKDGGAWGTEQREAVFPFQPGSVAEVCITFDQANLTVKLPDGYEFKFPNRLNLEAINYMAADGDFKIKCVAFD
Summary of the method: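 Biotinylated human Gal-1 (300-1000 ng/mL) competes with serially diluted compound for binding to ASF-coated plates, 3 h at 4° C. Bound protein detected with streptavidin-peroxidase and ABTS substrate (spectrophotometric). IC50 given as mean of several measurements.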

human Gal-3 (hGal-3), sequence (P17931 whole entry): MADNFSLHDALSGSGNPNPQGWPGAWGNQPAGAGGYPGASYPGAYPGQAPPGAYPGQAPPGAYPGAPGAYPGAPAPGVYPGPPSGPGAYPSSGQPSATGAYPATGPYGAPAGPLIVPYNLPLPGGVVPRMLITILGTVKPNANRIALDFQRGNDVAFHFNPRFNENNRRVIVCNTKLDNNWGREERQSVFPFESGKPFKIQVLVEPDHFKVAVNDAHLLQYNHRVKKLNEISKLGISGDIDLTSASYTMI

Substance | pIC50 (human Gal-3 (hGal-3); Table 10, 2-OMe-Gal inhibitors) | pIC50 (human Gal-1 (hGal-1)) | pIC50 (human Gal-3 (hGal-3); Table 5)
(2R,3R,4S,5R,6S)-6-(((R)-(5-Cyclopropyl-3-methylisoxazol-4-yl)(1-hydroxycyclohexyl)methyl)thio)-2-(hydroxymethyl)-5-methoxy-4-(4-(3,4,5-trifluorophenyl)-1H-1,2,3-triazol-1-yl)tetrahydro-2H-pyran-3-ol [Example 2.39.128R.I.] | 6.52 | 5.63 | –
(2S,3R,4S,5R,6R)-2-(((2,3-Dichlorophenyl)(4,4-difluoro-1-hydroxycyclohexyl)methyl)thio)-6-(hydroxymethyl)-4-(4-(3,4,5-trifluorophenyl)-1H-1,2,3-triazol-1-yl)tetrahydro-2H-pyran-3,5-diol [Example 2.44.113.] | – | 5.63 | 6.44
(2S,3R,4S,5R,6R)-2-(((3,3-Difluoro-1-hydroxycyclobutyl)(3-(trifluoromethyl)pyridin-2-yl)methyl)thio)-6-(hydroxymethyl)-4-(4-(3,4,5-trifluorophenyl)-1H-1,2,3-triazol-1-yl)tetrahydro-2H-pyran-3,5-diol [Example 2.35.125.] | – | 5.84 | 6.49
(2S,3R,4S,5R,6R)-2-(((4-Hydroxy-2,2,6,6-tetramethyltetrahydro-2H-pyran-4-yl)(2-(trifluoromethyl)phenyl)methyl)thio)-6-(hydroxymethyl)-4-(4-(3,4,5-trifluorophenyl)-1H-1,2,3-triazol-1-yl)tetrahydro-2H-pyran-3,5-diol [Example 2.42.102.] | – | 4.73 | 6.42
(2S,3R,4S,5R,6R)-2-(((4-Hydroxy-2,2-dimethyltetrahydro-2H-pyran-4-yl)(2-(trifluoromethyl)phenyl)methyl)thio)-6-(hydroxymethyl)-4-(4-(3,4,5-trifluorophenyl)-1H-1,2,3-triazol-1-yl)tetrahydro-2H-pyran-3,5-diol [Example 2.43.102.] | – | 5.72 | 6.92
(2S,3R,4S,5R,6R)-2-(((R)-(2,3-Dichlorophenyl)(4,4-difluoro-1-hydroxycyclohexyl)methyl)thio)-6-(hydroxymethyl)-4-(4-(3,4,5-trifluorophenyl)-1H-1,2,3-triazol-1-yl)tetrahydro-2H-pyran-3,5-diol [Example 2.44.113R.] | – | 5.76 | 6.10
(2S,3R,4S,5R,6R)-2-(((R)-(2-Cyclopropylphenyl)(4,4-difluoro-1-hydroxycyclohexyl)methyl)thio)-6-(hydroxymethyl)-4-(4-(3,4,5-trifluorophenyl)-1H-1,2,3-triazol-1-yl)tetrahydro-2H-pyran-3,5-diol [Example 2.44.106R.] | – | 7.70 | 7.22
(2S,3R,4S,5R,6R)-2-(((R)-(3,3-Difluoro-1-hydroxycyclobutyl)(3-(trifluoromethyl)pyridin-2-yl)methyl)thio)-6-(hydroxymethyl)-4-(4-(3,4,5-trifluorophenyl)-1H-1,2,3-triazol-1-yl)tetrahydro-2H-pyran-3,5-diol [Example 2.35.125R.] | – | 6.09 | 7.00
(2S,3R,4S,5R,6R)-2-(((R)-(4-Hydroxy-2,2,6,6-tetramethyltetrahydro-2H-pyran-4-yl)(2-(trifluoromethyl)phenyl)methyl)thio)-6-(hydroxymethyl)-4-(4-(3,4,5-trifluorophenyl)-1H-1,2,3-triazol-1-yl)tetrahydro-2H-pyran-3,5-diol [Example 2.42.102R.] | – | 5.19 | 7.05
(2S,3R,4S,5R,6R)-2-(((R)-((R)-4-Hydroxy-2,2-dimethyltetrahydro-2H-pyran-4-yl)(2-(trifluoromethyl)phenyl)methyl)thio)-6-(hydroxymethyl)-4-(4-(3,4,5-trifluorophenyl)-1H-1,2,3-triazol-1-yl)tetrahydro-2H-pyran-3,5-diol [Example 2.43.102RR.] | – | 5.06 | 6.54
(2S,3R,4S,5R,6R)-2-(((R)-((R)-4-Hydroxy-2,2-dimethyltetrahydro-2H-pyran-4-yl)(o-tolyl)methyl)thio)-6-(hydroxymethyl)-4-(4-(3,4,5-trifluorophenyl)-1H-1,2,3-triazol-1-yl)tetrahydro-2H-pyran-3,5-diol [Example 2.43.112RR.] | – | 5.17 | 5.82
(2S,3R,4S,5R,6R)-2-(((R)-((S)-4-Hydroxy-2,2-dimethyltetrahydro-2H-pyran-4-yl)(2-(trifluoromethyl)phenyl)methyl)thio)-6-(hydroxymethyl)-4-(4-(3,4,5-trifluorophenyl)-1H-1,2,3-triazol-1-yl)tetrahydro-2H-pyran-3,5-diol [Example 2.43.102RS.] | – | 6.10 | 7.40
(2S,3R,4S,5R,6R)-2-(((R)-((S)-4-Hydroxy-2,2-dimethyltetrahydro-2H-pyran-4-yl)(o-tolyl)methyl)thio)-6-(hydroxymethyl)-4-(4-(3,4,5-trifluorophenyl)-1H-1,2,3-triazol-1-yl)tetrahydro-2H-pyran-3,5-diol [Example 2.43.112RS.] | – | 6.40 | 6.89
(2S,3R,4S,5R,6R)-2-(((S)-(1-Hydroxycyclohexyl)(4-methylisoxazol-3-yl)methyl)thio)-6-(hydroxymethyl)-4-(4-(3,4,5-trifluorophenyl)-1H-1,2,3-triazol-1-yl)tetrahydro-2H-pyran-3,5-diol [Example 2.39.120S.] | – | 4.15 | 4.83
(2S,3R,4S,5R,6R)-2-(((S)-(2,3-Dichlorophenyl)(4,4-difluoro-1-hydroxycyclohexyl)methyl)thio)-6-(hydroxymethyl)-4-(4-(3,4,5-trifluorophenyl)-1H-1,2,3-triazol-1-yl)tetrahydro-2H-pyran-3,5-diol [Example 2.44.113S.] | – | 4.25 | 4.24
(2S,3R,4S,5R,6R)-2-(((S)-(2-Cyclopropylphenyl)(4,4-difluoro-1-hydroxycyclohexyl)methyl)thio)-6-(hydroxymethyl)-4-(4-(3,4,5-trifluorophenyl)-1H-1,2,3-triazol-1-yl)tetrahydro-2H-pyran-3,5-diol [Example 2.44.106S.] | – | 5.72 | 6.03
(2S,3R,4S,5R,6R)-2-(((S)-(3,3-Difluoro-1-hydroxycyclobutyl)(3-(trifluoromethyl)pyridin-2-yl)methyl)thio)-6-(hydroxymethyl)-4-(4-(3,4,5-trifluorophenyl)-1H-1,2,3-triazol-1-yl)tetrahydro-2H-pyran-3,5-diol [Example 2.35.125S.] | – | 4.66 | 5.52
(2S,3R,4S,5R,6R)-2-(((S)-(4,4-Difluoro-1-hydroxycyclohexyl)(2-(trifluoromethyl)phenyl)methyl)thio)-6-(hydroxymethyl)-4-(4-(3,4,5-trifluorophenyl)-1H-1,2,3-triazol-1-yl)tetrahydro-2H-pyran-3,5-diol [Example 2.44.112S.] | – | 4.75 | 4.71
(2S,3R,4S,5R,6R)-2-(((S)-(4-Hydroxy-2,2,6,6-tetramethyltetrahydro-2H-pyran-4-yl)(2-(trifluoromethyl)phenyl)methyl)thio)-6-(hydroxymethyl)-4-(4-(3,4,5-trifluorophenyl)-1H-1,2,3-triazol-1-yl)tetrahydro-2H-pyran-3,5-diol [Example 2.42.102S.] | – | < 4.00 | 5.11
